In patent US11541152B2, “Medical device with drug-eluting coating on modified device surface” (Lutonix, Inc., priority 2018, dated 2023):

Key:
[1] = stability under ethylene oxide sterilization, heating and aging; reaction with paclitaxel; details: for reaction with paclitaxel: ethylene oxide sterilization, heating, aging
[2] = octanol/water; cited from earlier work
[3] = cited from earlier work
[4] = BSA added; cited from earlier work
protein (albumin) = details: cited from earlier work

Question: For `O=C(O)c1ccccc1` [benzoic acid], which reaction with paclitaxel [1] is on record?
Answer: reacted with paclitaxel

Question: What about the “stability under ethylene oxide sterilization, heating, and aging process” value ([1]; formulated with paclitaxel) of the same molecule?
Answer: not stable

Question: For `O=C1O[C@H]([C@@H](O)CO)C(O)=C1O` [ascorbic acid], which reaction with paclitaxel [1] is on record?
Answer: reacted with paclitaxel

Question: With `COc1ccc(O)c(C(C)(C)C)c1` [Butylated hydroxyanisole] as the molecule, how does the “log P” value [2] read?
Answer: 1.31

Question: For Sudan Red, which “solubility in aqueous solvent” value [3] is on record?
Answer: insoluble in aqueous solvent

Question: With `OCCNCCO` [diethanolamine] as the molecule, how does the reaction with paclitaxel [1] read?
Answer: reacted with paclitaxel

Question: For `CC(=O)O[C@H]1C(=O)[C@@]2(C)[C@H]([C@H](OC(=O)c3ccccc3)[C@]3(O)C[C@H](OC(=O)[C@H](O)[C@@H](NC(=O)c4ccccc4)c4ccccc4)C(C)=C1C3(C)C)[C@]1(OC(C)=O)CO[C@@H]1C[C@@H]2O` [paclitaxel], which “increase of solubility in PBS with the addition of BSA” value [4] is on record?
Answer: over 20 fold

Question: With PEG-20 sorbitan monolaurate [Tween 20] as the molecule, how does the “log P” value [2] read?
Answer: about 3.0

Question: What does the source list for `CO[C@H]1C[C@@H]2CC[C@@H](C)[C@@](O)(O2)C(=O)C(=O)N2CCCC[C@H]2C(=O)O[C@H]([C@H](C)C[C@@H]2CC[C@@H](O)[C@H](OC)C2)CC(=O)[C@H](C)/C=C(\C)[C@@H](O)[C@@H](OC)C(=O)[C@H](C)C[C@H](C)/C=C/C=C/C=C/1C` [rapamycin]?
Answer: protein bound (protein (albumin)): 92%; share of protein binding that is to albumin (protein (albumin); primarily to albumin): 97%
